Our source for the Ki values is patent US10435405B2, “Pyrazolopyridine compounds and uses thereof” (Incyte Corporation, priority 2016, dated 2019).

Each structure is given as a SMILES string.

HPK1, sequence (Q92918 1-346): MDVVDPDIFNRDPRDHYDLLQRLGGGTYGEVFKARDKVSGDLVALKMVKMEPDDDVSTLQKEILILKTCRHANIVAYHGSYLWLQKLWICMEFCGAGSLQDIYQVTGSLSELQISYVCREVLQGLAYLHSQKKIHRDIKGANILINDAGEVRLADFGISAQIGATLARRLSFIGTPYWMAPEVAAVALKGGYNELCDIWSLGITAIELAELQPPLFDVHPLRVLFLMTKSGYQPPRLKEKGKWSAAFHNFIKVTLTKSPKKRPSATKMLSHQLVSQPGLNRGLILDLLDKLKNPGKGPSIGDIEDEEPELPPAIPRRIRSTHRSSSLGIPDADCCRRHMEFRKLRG

This test addresses HPK1 (Homo sapiens (Human), UniProt Q92918). Put plainly: HPK1 Kinase Binding Assay. The gist of the method: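 Active HPK1 (added as 4 nM solution) was combined with compound (3-fold, 11-point series) and tracer 222 (18 nM) plus Eu-anti-GST antibody (4 nM) in 50 mM HEPES pH 7.5 with MgCl2 and DTT. After 1 h at 25 °C plates were read. Ki values were derived.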
As to `Cc1cc(NC(=O)CN(C)C)cc(Cl)c1-c1cc2c(-c3cnn(C)c3)n[nH]c2cn1` [Example 78, N-(3-Chloro-5-methyl-4-(3-(1-methyl-1H-pyrazol-4-yl)-1H-pyrazolo[3,4-c]pyridin-5-yl)phenyl)-2-(dimethylamino)acetamide], the Ki was ≤ 100 nM.
Turning to `Cc1cc(NC(=O)CN2C[C@H]3CC[C@@H]2C3)ccc1-c1cc2c(-c3cnn(C)c3)n[nH]c2cn1` [Example 79, 2-((1R,4S)-2-Azabicyclo[2.2.1]heptan-2-yl)-N-(3-methyl-4-(3-(1-methyl-1H-pyrazol-4-yl)-1H-pyrazolo[3,4-c]pyridin-5-yl)phenyl)acetamide], the Ki was ≤ 100 nM.
The same measure for `Cc1cc(NC(=O)CN2CCCC2)cc(F)c1-c1cc2c(-c3cnn(C)c3)n[nH]c2cn1` [Example 80, N-(3-Fluoro-5-methyl-4-(3-(1-methyl-1H-pyrazol-4-yl)-1H-pyrazolo[3,4-c]pyridin-5-yl)phenyl)-2-(pyrrolidin-1-yl)acetamide]: ≤ 100 nM.
As for `Cc1cc(NC(=O)CN(C)C)cc(F)c1-c1cc2c(-c3cnn(C)c3)n[nH]c2cn1` [Example 81, 2-(Dimethylamino)-N-(3-fluoro-5-methyl-4-(3-(1-methyl-1H-pyrazol-4-yl)-1H-pyrazolo[3,4-c]pyridin-5-yl)phenyl)acetamide], the inhibition constant (Ki) was ≤ 100 nM.
The figure for `Cc1cc(NC(=O)CN2C3CCC2CC3)cc(F)c1-c1cc2c(-c3cnn(C)c3)n[nH]c2cn1` [Example 82, 2-(7-Azabicyclo[2.2.1]heptan-7-yl)-N-(3-fluoro-5-methyl-4-(3-(1-methyl-1H-pyrazol-4-yl)-1H-pyrazolo[3,4-c]pyridin-5-yl)phenyl)acetamide] is ≤ 100 nM; for `Cc1cc(NC(=O)CN2C[C@H]3CC[C@@H]2C3)cc(F)c1-c1cc2c(-c3cnn(C)c3)n[nH]c2cn1` [Example 83, 2-((1R,4S)-2-Azabicyclo[2.2.1]heptan-2-yl)-N-(3-fluoro-5-methyl-4-(3-(1-methyl-1H-pyrazol-4-yl)-1H-pyrazolo[3,4-c]pyridin-5-yl)phenyl)acetamide] it is ≤ 100 nM.
For the compound `Cc1cc(NC(=O)CCN(C)C)cc(F)c1-c1cc2c(-c3cnn(C)c3)n[nH]c2cn1` [Example 84, 3-(Dimethylamino)-N-(3-fluoro-5-methyl-4-(3-(1-methyl-1H-pyrazol-4-yl)-1H-pyrazolo[3,4-c]pyridin-5-yl)phenyl)propanamide], the Ki is ≤ 100 nM.
The same measure for `Cc1cc(NC(=O)CC#N)cc(F)c1-c1cc2c(-c3cnn(C)c3)n[nH]c2cn1` [Example 85, 2-Cyano-N-(3-fluoro-5-methyl-4-(3-(1-methyl-1H-pyrazol-4-yl)-1H-pyrazolo[3,4-c]pyridin-5-yl)phenyl)acetamide]: ≤ 100 nM; for `CNCc1cccc(-c2cc3c(-c4cnn(C)c4)n[nH]c3cn2)c1C` [Example 86, N-Methyl-1-(2-methyl-3-(3-(1-methyl-1H-pyrazol-4-yl)-1H-pyrazolo[3,4-c]pyridin-5-yl)phenyl)methanamine]: ≤ 100 nM; for `CNCc1ccc(C)c(-c2cc3c(-c4cnn(C)c4)n[nH]c3cn2)c1` [Example 87, N-Methyl-1-(4-methyl-3-(3-(1-methyl-1H-pyrazol-4-yl)-1H-pyrazolo[3,4-c]pyridin-5-yl)phenyl)methanamine]: ≤ 100 nM.
As for `CNCc1cccc(-c2cc3c(-c4cnn(C)c4)n[nH]c3cn2)c1C(F)(F)F` [Example 88, N-Methyl-1-(3-(3-(1-methyl-1H-pyrazol-4-yl)-1H-pyrazolo[3,4-c]pyridin-5-yl)-2-(trifluoromethyl)phenyl)methanamine], the inhibition constant Ki is ≤ 100 nM.
Take `Cn1cc(-c2n[nH]c3cnc(-c4cccc(CN5CCC5)c4C(F)(F)F)cc23)cn1` [Example 89, 5-(3-(Azetidin-1-ylmethyl)-2-(trifluoromethyl)phenyl)-3-(1-methyl-1H-pyrazol-4-yl)-1H-pyrazolo[3,4-c]pyridine]: the Ki was ≤ 100 nM.
With `Cn1cc(-c2n[nH]c3cnc(-c4cccc(CNC5CCOCC5)c4C(F)(F)F)cc23)cn1` [Example 90, N-(3-(3-(1-Methyl-1H-pyrazol-4-yl)-1H-pyrazolo[3,4-c]pyridin-5-yl)-2-(trifluoromethyl)benzyl)tetrahydro-2H-pyran-4-amine], the Ki is ≤ 100 nM.
Consider `CC(C)NCc1cccc(-c2cc3c(-c4cnn(C)c4)n[nH]c3cn2)c1C(F)(F)F` [Example 91, N-(3-(3-(1-Methyl-1H-pyrazol-4-yl)-1H-pyrazolo[3,4-c]pyridin-5-yl)-2-(trifluoromethyl)benzyl)propan-2-amine], for which the Ki is ≤ 100 nM.
Regarding `CNCc1ccc(F)c(-c2cc3c(-c4cnn(C)c4)n[nH]c3cn2)c1C` [Example 92, 1-(4-Fluoro-2-methyl-3-(3-(1-methyl-1H-pyrazol-4-yl)-1H-pyrazolo[3,4-c]pyridin-5-yl)phenyl)-N-methylmethanamine], the Ki is ≤ 100 nM.
The figure for `Cc1c(CNC(C)C)ccc(F)c1-c1cc2c(-c3cnn(C)c3)n[nH]c2cn1` [Example 93, N-(4-Fluoro-2-methyl-3-(3-(1-methyl-1H-pyrazol-4-yl)-1H-pyrazolo[3,4-c]pyridin-5-yl)benzyl)propan-2-amine] is ≤ 100 nM; for `Cc1c(CN2CCC2)ccc(F)c1-c1cc2c(-c3cnn(C)c3)n[nH]c2cn1` [Example 94, 5-(3-(Azetidin-1-ylmethyl)-6-fluoro-2-methylphenyl)-3-(1-methyl-1H-pyrazol-4-yl)-1H-pyrazolo[3,4-c]pyridine] it is ≤ 100 nM.
The figure for `CC(C)NC1CC(c2cc(F)c(-c3cc4c(-c5cnn(C)c5)n[nH]c4cn3)c(F)c2)C1` (stereo not drawn) [Example 95, 3-(3,5-Difluoro-4-(3-(1-methyl-1H-pyrazol-4-yl)-1H-pyrazolo[3,4-c]pyridin-5-yl)phenyl)-N-isopropylcyclobutanamine] is ≤ 100 nM; for `CNCCc1cc(F)c(-c2cc3c(-c4cnn(C)c4)n[nH]c3cn2)c(F)c1` [Example 96, 2-(3,5-Difluoro-4-(3-(1-methyl-1H-pyrazol-4-yl)-1H-pyrazolo[3,4-c]pyridin-5-yl)phenyl)-N-methylethanamine] it is ≤ 100 nM.
With `CNCCc1ccc(F)c(-c2cc3c(-c4cnn(C)c4)n[nH]c3cn2)c1F` [Example 97, 2-(2,4-Difluoro-3-(3-(1-methyl-1H-pyrazol-4-yl)-1H-pyrazolo[3,4-c]pyridin-5-yl)phenyl)-N-methylethanamine], the Ki is ≤ 100 nM.
Consider `Cn1cc(-c2n[nH]c3cnc(-c4c(F)ccc(CCNC5CCOCC5)c4F)cc23)cn1` [Example 98, N-(2,4-Difluoro-3-(3-(1-methyl-1H-pyrazol-4-yl)-1H-pyrazolo[3,4-c]pyridin-5-yl)phenethyl)tetrahydro-2H-pyran-4-amine], for which the Ki was ≤ 100 nM.
The same measure for `CC(C)N1CC(NCCc2cc(F)c(-c3cc4c(-c5cnn(C)c5)n[nH]c4cn3)c(F)c2)C1` [Example 99, N-(3,5-Difluoro-4-(3-(1-methyl-1H-pyrazol-4-yl)-1H-pyrazolo[3,4-c]pyridin-5-yl)phenethyl)-1-isopropylazetidin-3-amine]: ≤ 100 nM; for `CNC(=O)c1ccc(-c2n[nH]c3cnc(-c4c(F)cccc4OC)cc23)cc1F` [Example 100, 2-Fluoro-4-(5-(2-fluoro-6-methoxyphenyl)-1H-pyrazolo[3,4-c]pyridin-3-yl)-N-methylbenzamide]: ≤ 100 nM; for `CNC(=O)c1ccc(-c2n[nH]c3cnc(-c4c(F)cccc4OC)cc23)cn1` [Example 101, 5-(5-(2-Fluoro-6-methoxyphenyl)-1H-pyrazolo[3,4-c]pyridin-3-yl)-N-methylpicolinamide]: ≤ 100 nM.
For the compound `CNC(=O)c1ccc(-c2n[nH]c3cnc(-c4c(F)cccc4OC)cc23)cc1OC` [Example 102, 4-(5-(2-Fluoro-6-methoxyphenyl)-1H-pyrazolo[3,4-c]pyridin-3-yl)-2-methoxy-N-methylbenzamide], the Ki is ≤ 100 nM.
The figure for `CNC(=O)c1ccc(-c2n[nH]c3cnc(-c4c(F)cccc4OC)cc23)cc1C` [Example 103, 4-(5-(2-Fluoro-6-methoxyphenyl)-1H-pyrazolo[3,4-c]pyridin-3-yl)-N,2-dimethylbenzamide] is ≤ 100 nM.
With `COc1cccc(F)c1-c1cc2c(-n3cnc(C(=O)NC(C)C)c3)n[nH]c2cn1` [Example 104, 1-(5-(2-Fluoro-6-methoxyphenyl)-1H-pyrazolo[3,4-c]pyridin-3-yl)-N-isopropyl-1H-imidazole-4-carboxamide], the Ki was ≤ 100 nM.
The same measure for `CNC(=O)c1cn(-c2n[nH]c3cnc(-c4c(F)cccc4OC)cc23)cn1` [Example 105, 1-(5-(2-Fluoro-6-methoxyphenyl)-1H-pyrazolo[3,4-c]pyridin-3-yl)-N-methyl-1H-imidazole-4-carboxamide]: ≤ 100 nM; for `Cn1cc(-c2n[nH]c3cnc(-c4c(F)cc(OCC5CCN5)cc4F)cc23)cn1` (stereo not drawn) [Example 106, 5-(4-(Azetidin-2-ylmethoxy)-2,6-difluorophenyl)-3-(1-methyl-1H-pyrazol-4-yl)-1H-pyrazolo[3,4-c]pyridine]: ≤ 100 nM; for `Cn1cc(-c2n[nH]c3cnc(-c4c(F)cc(OC5CCOCC5)cc4F)cc23)cn1` [Example 107, 5-(2,6-Difluoro-4-(tetrahydro-2H-pyran-4-yloxy)phenyl)-3-(1-methyl-1H-pyrazol-4-yl)-1H-pyrazolo[3,4-c]pyridine]: ≤ 100 nM.
Take `Cn1cc(-c2n[nH]c3cnc(-c4c(F)cc(OCc5ccncc5)cc4F)cc23)cn1` [Example 108, 5-(2,6-Difluoro-4-(pyridin-4-ylmethoxy)phenyl)-3-(1-methyl-1H-pyrazol-4-yl)-1H-pyrazolo[3,4-c]pyridine]: the Ki was ≤ 100 nM.
The same measure for `CN(C)C(=O)Oc1cc(F)c(-c2cc3c(-c4cnn(C)c4)n[nH]c3cn2)c(F)c1` [Example 109, 3,5-Difluoro-4-(3-(1-methyl-1H-pyrazol-4-yl)-1H-pyrazolo[3,4-c]pyridin-5-yl)phenyl dimethylcarbamate]: ≤ 100 nM; for `Cn1cc(-c2n[nH]c3cnc(-c4c(F)cc(OC(=O)N5CCOCC5)cc4F)cc23)cn1` [Example 110, 3,5-Difluoro-4-(3-(1-methyl-1H-pyrazol-4-yl)-1H-pyrazolo[3,4-c]pyridin-5-yl)phenyl morpholine-4-carboxylate]: ≤ 100 nM.
